The test system of test [1] is BRD pathogens, M. haemolytica and P. multocida. Briefly: MIC screening panel, BRD pathogens (CLSI broth micro-dilution). It is filed as cell-based. The source says:
Primary screening of the compounds of the invention included the evaluation of antibacterial activity of analogs through determination of microbial inhibition concentration (MIC) as per CLSI guidelines. The screening panel included the relevant BRD pathogens: 1) M. haemolytica (e.g., 12726, 46571 and 49023, all AHDRCC; and 33396 (ATCC)); and 2) P. multocida (e.g., 34135 and 46572 (both AHDRCC) and 43137 (ATCC)). In some instances, H. somni (A700025K) pathogens were also included in the screening panel. The AHDRCC strains originated from the Zoetis BRD/SRD surveillance program and refer to the Animal Health Development and Research Culture Collection. In addition, the screen assessed S. aureus (29213 ATCC) as a representative Gram-positive isolate, E.faecalis (19433 ATCC) as a commensal gram-positive gastrointestinal bacterium and E. coli (100, 3110 and 25922 (ATCC)) for the evaluation of efflux potential. The screening panel BRD pathogens were assessed in determining antibacterial activity of the Formula (1) compounds.
All relevant BRD pathogens were initially screened at a top concentration of 64 μg/mL of a Formula (1) compound in an eleven-point dilution series. […] If an Example was purified further, the MICs moved […] essentially two dilutions across all strains tested in the screening panel.
In-Vitro MIC Model Compounds were analyzed for antibacterial activity against a panel of animal health specific gram-positive and gram-negative clinical strains by diluting compounds in DMSO to an appropriate stock concentration to determine the Minimal Inhibitory Concentration (MIC) via a semi-automated broth micro-dilution method (CLSI reference method) with QC strains and anti-microbial agent(s). Specifically, bacteria were grown overnight on TSA w/5% sheep blood agar plates and diluted in saline buffer to a McFarland Standard 0.5, then further diluted in cation-ion adjusted Mueller Hinton Broth to a final concentration of approximately 5×10^5 CFU/mL. 100 μL of inoculated media was added to 96-well plate(s) with 3 μL of serially diluted compound in each row. Depending on strain (see CLSI reference method), bacteria were incubated 18-22 hours at 35-37° C. in ambient air, with 5% CO2 or anaerobically (up to 48 hours).
(In broth dilution the organism is exposed to a series of concentrations in liquid medium.)

For the next test, the system named is TNF-α. Briefly: Whole bovine blood assay, LPS-induced TNF-α. It is filed as cell-based. The note with it: fresh whole bovine blood, LPS stimulant; top drug concentration 250 μM. In outline:
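Fresh heparinized bovine whole blood was preincubated with compound 4 h at 37 °C, then stimulated with LPS (final 1 μg/mL) for 18 h at 37 °C. Plasma TNF-α was quantified by MSD U-Plex chemiluminescent immunoassay, normalized to total protein (BCA), and IC50 taken for LPS-induced TNF-α inhibition.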

The mark [2] stands for this setting: Table B, at least one BRD pathogenic strain, top concentration 64 μg/mL, read-out: MIC flag (*) for BRD pathogenic strains.

Read-outs that look alike come from different tables or passages of the source. Marks after values point to notes of the source that are not given here.

Take `CCCNC[C@]1(O)[C@H](C)O[C@@H](O[C@H]2[C@H](C)[C@@H](O[C@@H]3O[C@H](C)C[C@H](N(C)S(=O)(=O)c4ccccc4)[C@H]3Oc3ccc(F)cc3)[C@](C)(O)C[C@@H](C)CN(CC)[C@H](C)[C@@H](O)[C@](C)(O)[C@@H](CC)OC(=O)[C@@H]2C)C[C@@]1(C)OC` [Example B-161, N-((2S,3R,4S,6R)-2-(((2R,3S,4R,5R,8R,10R,11R,12S,13S,14R)-2,6-diethyl-3,4,10-trihydroxy-13-(((2R,4R,5S,6S)-5-hydroxy-4-methoxy-4,6-dimethyl-5-((propylamino)methyl)tetrahydro-2H-pyran-2-yl)oxy)-3,5,8,10,12,14-hexamethyl-15-oxo-1-oxa-6-azacyclopentadecan-11-yl)oxy)-3-(4-fluorophenoxy)-6-methyltetrahydro-2H-pyran-4-yl)-N-methylbenzenesulfonamide]: the MIC in test [1] (setting [2]) was no more than 64 mg/L.
With `CCCNC[C@]1(O)[C@H](C)OC(O[C@H]2[C@H](C)[C@@H](O[C@@H]3O[C@H](C)C[C@H](N(C)S(=O)(=O)c4c(C)noc4C)[C@H]3Oc3ccc(OC)cc3)[C@](C)(O)C[C@@H](C)CN[C@H](C)[C@@H](O)[C@](C)(O)[C@@H](CC)OC(=O)[C@@H]2C)C[C@@]1(C)OC` (stereo partly drawn) [Example B-116], in test [1] (Table B, at least one BRD pathogenic strain, top concentration 64 μg/mL), the “MIC flag (*) for BRD pathogenic strains” value is given as “B-116* (MIC ≤64 μg/mL for at least one BRD pathogenic strain)”.
With “(2R,3S,4R,5R,8R,10R,11R, 12S, 13S, 14R)-11-[(2R,3S,4R,6S)-4-[[3-(dimethylamino)phenyl]sulfamoyl-methylamino]-3-hydroxy-6-methyloxan-2-yl]oxy-2-ethyl-3,4,10-trihydroxy-13-[(2R,4R,5S,6S)-5-hydroxy-4-methoxy-4,6-dimethyl-5-(piperidin-1-ylmethyl) oxan-2-yl]oxy-3,5,8,10, 12, 14-hexamethyl-15-oxo-1-oxa-6-azacyclopentadecane [Example C-25]”, the “MIC flag (*) for BRD pathogenic strains” value in test [1] (Table C, at least one BRD pathogenic strain, top concentration 64 μg/mL) is “C-25* (MIC ≤64 μg/mL for at least one BRD pathogenic strain)”. Inhibition in the test with TNF-α was half-maximal at 37 µM (IC50).
`CC[C@H]1OC(=O)[C@H](C)[C@@H](O[C@H]2C[C@@](C)(OC)[C@](O)(CC#N)[C@H](C)O2)[C@H](C)[C@@H](O[C@@H]2O[C@H](C)C[C@H](N(C)S(=O)(=O)c3ccc(Cl)cc3)[C@H]2O)[C@](C)(O)C[C@@H](C)CN[C@H](C)[C@@H](O)[C@]1(C)O` [Example A6-1, 4-chloro-N-((2S,3R,4S,6R)-2-(((2R,3S,4R,5R,8R,10R,11R,12S,13S,14R)-13-(((2R,4R,5S,6S)-5-(cyanomethyl)-5-hydroxy-4-methoxy-4,6-dimethyltetrahydro-2H-pyran-2-yl)oxy)-2-ethyl-3,4,10-trihydroxy-3,5,8,10,12,14-hexamethyl-15-oxo-1-oxa-6-azacyclopentadecan-11-yl)oxy)-3-hydroxy-6-methyltetrahydro-2H-pyran-4-yl)-N-methylbenzenesulfonamide]: in test [1] (BRD pathogens M. haemolytica and P. multocida, read-out: antibacterial / non-antibacterial (MIC class)), the MIC is greater than 64 mg/L.
`CCCNC[C@]1(O)[C@H](C)O[C@@H](O[C@H]2[C@H](C)[C@@H](O[C@@H]3O[C@H](C)C[C@H](N(C)S(=O)(=O)NCCc4ccccc4)[C@H]3O)[C@](C)(O)C[C@@H](C)CN[C@H](C)[C@@H](O)[C@](C)(O)[C@@H](CC)OC(=O)[C@@H]2C)C[C@@]1(C)OC` [Example B-40, (2R,3S,4R,5R,8R,10R,11R,12S,13S,14R)-2-ethyl-3,4,10-trihydroxy-13-[(2R,4R,5S,6S)-5-hydroxy-4-methoxy-4,6-dimethyl-5-(propylaminomethyl)oxan-2-yl]oxy-11-[(2S,3R,4S,6R)-3-hydroxy-6-methyl-4-[methyl (2-phenylethylsulfamoyl)amino]oxan-2-yl]oxy-3,5,8,10,12,14-hexamethyl-15-oxo-1-oxa-6-azacyclopentadecane]: in test [1] (setting [2]), the MIC was no more than 64 mg/L.

Values taken from US20250236616A1, “IMMUNOMODULATING AZALIDES” (Zoetis Services LLC, priority 2021, published 2025).
